According to PMC10900215 (JACS Au, 2024):

Experiments:
[1] = target: T1, METTL3 (Homo sapiens, UniProt Q86U44); experiment: Cellular degradation assay (Western blot) in DU145; type: cell-based; settings: DU145, 2 μM, 24 h
T1 construct: METTL3–14 degradation up to 70% of the endogenous level; endogenous in cells; host or cells: MOLM-13, PC3, DU145
Experimental: (§1) MOLM-13, NOMO-1, THP-1, Kasumi-1, PC3, and DU145 cell lines were obtained from DSMZ-German Collection of Microorganisms and Cell Cultures GmbH. Cells were cultured in RPMI 1640 medium (11875093, Thermo Fisher Scientific) containing 10% FBS (16140071, Thermo Fisher Scientific) and 1% penicillin-streptomycin (15140122, Thermo Fisher Scientific) in 5% CO2 at 37 °C in a humidified incubator, with maintained cell densities at 0.5–1 × 10^6 cells/mL. All cell lines were tested negative for mycoplasma contamination (PCR-based assay by Microsynth, Switzerland).
(§2) METTL3 (and METTL14) protein degradation was monitored by Western blot. Cells were treated with the indicated concentration of PROTACs or DMSO control (0.1% (v/v)) for 24h, 37 °C with 5% CO2. Samples were then collected and lysed with RIPA buffer with added protease inhibitors (11697498001, Roche). After SDS-PAGE, proteins were transferred to a nitrocellulose membrane, blocked (with 5% milk, 0.5% BSA in TBST buffer), and incubated overnight with primary antibodies. The following antibodies were used: GAPDH (no. 2118, Cell Signaling, 1:4000), β-actin (ab8226, Abcam, 1:2000), METTL3 (ab195352, Abcam, 1:1000), and METTL14 (ab220031, Abcam, 1:1000). Membranes were scanned using an LI-COR Odyssey DLx imager after incubation with appropriate secondary antibodies (antimouse IgG IRDye 680RD (926–68072, LI-COR, 1:10000) and goat anti-Rabbit IgG IRDye 800CW (926–32211, LI-COR, 1:10000)). Densitometry was performed in Image Studio Lite software and analyzed in GraphPad Prism 9.

[2] = target: T2, METTL3-14 (Homo sapiens, UniProt Q86U44); experiment: Cellular degradation assay (Western blot), METTL3 and/or METTL14 (METTL3–14) in MOLM-13; type: cell-based; parameters: METTL3–14 degradation up to 70% of the endogenous level; endogenous in cells; host or cells: MOLM-13, KASUMI-1, THP-1, NOMO-1; settings: for METTL3–14 levels in the presence of UZH2: MOLM-13, 2 μM PROTAC + 10 μM UZH2; for METTL3–14 degradation in the presence of lenalidomide: MOLM-13, 2 μM PROTAC + 10 μM lenalidomide; for degradation of METTL3 and/or METTL14: MOLM-13, 2 μM, 24 h, Western blot; for concentration at which the highest degradation was observed: MOLM-13, five concentrations
Experimental: MOLM-13, NOMO-1, THP-1, Kasumi-1, PC3, and DU145 cell lines were obtained from DSMZ-German Collection of Microorganisms and Cell Cultures GmbH. […] All cell lines were tested negative for mycoplasma contamination (PCR-based assay by Microsynth, Switzerland).
METTL3 (and METTL14) protein degradation was monitored by Western blot. Cells were treated with the indicated concentration of PROTACs or DMSO control (0.1% (v/v)) for 24h, 37 °C with 5% CO2. […] After SDS-PAGE, proteins were transferred to a nitrocellulose membrane, blocked (with 5% milk, 0.5% BSA in TBST buffer), and incubated overnight with primary antibodies. […] Densitometry was performed in Image Studio Lite software and analyzed in GraphPad Prism 9.

[3] = target: T3, ternary complex CRBN/PROTAC/METTL3–14 (Homo sapiens, UniProt Q86U44+Q96SW2); experiment: FRET-based ternary complex formation assay (TCFA); type: binding; settings: for TCFA amplitude (mean ± SEM): Hook curve amplitude, fraction of the maximum of compound 16; for ECmax (nM) ± SD: PROTAC concentration at the maximum of the signal in the TCFA; for ECmax: TCFA, peak of the Hook curve
T3 construct: methyltransferase domains (MTD) of METTL3 (residues 354–580); His6 (N, cleaved yes); made in house; host or cells: METTL3-MTD/METTL14-MTD: baculovirus/Sf9; CRBN-TBD: E. coli Rosetta (DE3), co-expressed with BirA
Outline: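 HTRF/TR-FRET measurement of PROTAC-induced complex between GST-tagged METTL3–14 and biotinylated CRBN^TBD-Avi (10 nM final) with 0.8 nM Eu^3+ anti-GST antibody, in 50 mM HEPES pH 7.5, 150 mM NaCl, 0.1% BSA, 100 mM KF. Emission ratio used; ECmax and Hook-curve amplitude taken from Gaussian fit or highest-signal data point.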

[4] = target: T2, METTL3-14; experiment: Cellular degradation assay (Western blot) in THP-1; type: cell-based; parameters: METTL3–14 degradation up to 70% of the endogenous level; endogenous in cells; host or cells: MOLM-13, KASUMI-1, THP-1, NOMO-1; settings: THP-1, 2 μM, 24 h
Experimental: as §1, §2

[5] = target: T2, METTL3-14; experiment: Cellular degradation assay (Western blot) in NOMO-1; type: cell-based; parameters: METTL3–14 degradation up to 70% of the endogenous level; endogenous in cells; host or cells: MOLM-13, KASUMI-1, THP-1, NOMO-1; settings: NOMO-1, 2 μM, 24 h
Experimental: as §1, §2

T3 sequence (Q86U44 354-580): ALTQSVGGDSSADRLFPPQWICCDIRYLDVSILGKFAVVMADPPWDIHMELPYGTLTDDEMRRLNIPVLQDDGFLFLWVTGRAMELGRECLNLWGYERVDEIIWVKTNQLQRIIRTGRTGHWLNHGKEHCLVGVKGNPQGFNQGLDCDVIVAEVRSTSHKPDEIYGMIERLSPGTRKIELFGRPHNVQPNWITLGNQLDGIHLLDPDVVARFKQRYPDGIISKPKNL
T3 sequence (Q9HCE5 107-395 partner limits assumed): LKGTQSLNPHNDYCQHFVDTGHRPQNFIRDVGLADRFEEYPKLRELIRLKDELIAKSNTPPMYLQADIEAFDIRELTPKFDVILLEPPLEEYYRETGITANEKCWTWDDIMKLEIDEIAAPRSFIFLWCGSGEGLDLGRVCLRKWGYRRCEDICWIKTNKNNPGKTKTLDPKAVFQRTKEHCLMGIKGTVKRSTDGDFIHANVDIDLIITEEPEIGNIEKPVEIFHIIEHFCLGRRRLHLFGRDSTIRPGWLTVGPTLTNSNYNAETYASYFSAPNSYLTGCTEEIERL
T3 sequence (Q96SW2 318-442): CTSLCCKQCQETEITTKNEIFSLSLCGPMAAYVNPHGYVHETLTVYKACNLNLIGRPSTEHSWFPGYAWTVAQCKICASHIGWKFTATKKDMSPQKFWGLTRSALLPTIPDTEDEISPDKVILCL
T2 sequence (Q86U44 2-580 limits assumed): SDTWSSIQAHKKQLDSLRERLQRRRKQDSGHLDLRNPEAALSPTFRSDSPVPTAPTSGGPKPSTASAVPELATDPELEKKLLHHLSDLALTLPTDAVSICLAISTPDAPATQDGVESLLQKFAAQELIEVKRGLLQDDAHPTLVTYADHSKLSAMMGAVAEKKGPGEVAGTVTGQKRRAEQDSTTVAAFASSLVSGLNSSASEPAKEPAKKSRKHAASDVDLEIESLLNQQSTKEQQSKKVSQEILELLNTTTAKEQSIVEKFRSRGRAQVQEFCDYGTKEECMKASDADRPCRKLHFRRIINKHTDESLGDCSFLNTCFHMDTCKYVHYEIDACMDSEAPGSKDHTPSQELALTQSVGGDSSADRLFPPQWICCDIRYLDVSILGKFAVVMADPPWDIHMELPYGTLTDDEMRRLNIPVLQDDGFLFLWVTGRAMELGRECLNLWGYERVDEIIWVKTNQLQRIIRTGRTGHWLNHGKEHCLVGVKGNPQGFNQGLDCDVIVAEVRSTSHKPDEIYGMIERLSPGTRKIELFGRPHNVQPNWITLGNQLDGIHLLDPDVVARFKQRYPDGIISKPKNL
T2 sequence (Q9HCE5 whole entry partner): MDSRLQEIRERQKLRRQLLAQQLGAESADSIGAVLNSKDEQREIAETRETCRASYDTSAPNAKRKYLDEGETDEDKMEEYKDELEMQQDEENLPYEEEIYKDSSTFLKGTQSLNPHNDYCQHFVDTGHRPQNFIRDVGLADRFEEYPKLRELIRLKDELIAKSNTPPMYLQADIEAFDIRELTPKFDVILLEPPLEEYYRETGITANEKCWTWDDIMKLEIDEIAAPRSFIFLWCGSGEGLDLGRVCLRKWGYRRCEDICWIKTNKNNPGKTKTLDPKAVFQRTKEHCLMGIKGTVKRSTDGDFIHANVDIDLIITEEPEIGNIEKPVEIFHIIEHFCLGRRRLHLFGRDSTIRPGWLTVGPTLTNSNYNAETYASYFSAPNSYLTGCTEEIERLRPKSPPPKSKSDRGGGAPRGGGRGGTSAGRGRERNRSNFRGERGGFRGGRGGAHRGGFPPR
T1 sequence (Q86U44 2-580 limits assumed): as the sequence (Q86U44 2-580 limits assumed) above
T1 sequence (Q9HCE5 whole entry partner): as the sequence (Q9HCE5 whole entry partner) above

Compound	effect on METTL3 level [1]	METTL3–14 levels in the presence of UZH2 [2]	METTL3–14 degradation in the presence of lenalidomide [2]	degradation of METTL3 and/or METTL14 [2] [%]	TCFA amplitude (mean ± SEM) [3]	ECmax (nM) ± SD [3] [nM]	ECmax [3]	degradation levels of METTL3 and METTL14 [4]	degradation levels of METTL3 and METTL14 [5]	concentration at which the highest degradation was observed [2] [µM]	highest degradation in concentration dependence ([2]; MOLM-13, 0.1 μM)
CC1(C)CCN(Cc2cc(F)c(N3CC(=O)NC4(CCN(c5cc(NCC6CCN(C(=O)CCCCCNc7cccc8c7C(=O)N(C7CCC(=O)NC7=O)C8=O)CC6)ncn5)CC4)C3)cc2F)CC1 (centres unmarked) [Compound 24]	only a minor effect	elevated levels of METTL3–14	did not observe any degradation	≥ 50	1.2 ± 0.0	470 ± 80	submicromolar	comparable to those in MOLM-13	comparable to those in MOLM-13		
CC1(C)CCN(Cc2cc(F)c(N3CC(=O)NC4(CCN(c5cc(NCc6cccc(CNC(=O)CCCNc7cccc8c7C(=O)N(C7CCC(=O)NC7=O)C8=O)c6)ncn5)CC4)C3)cc2F)CC1 (centres unmarked) [Compound 14]	only a minor effect				1.2 ± 0.0	250 ± 0	submicromolar	comparable to those in MOLM-13	comparable to those in MOLM-13	1	
CC1(C)CCN(Cc2cc(F)c(N3CC(=O)NC4(CCN(c5cc(NCC6CCN(C(=O)CCCNc7cccc8c7C(=O)N(C7CCC(=O)NC7=O)C8=O)CC6)ncn5)CC4)C3)cc2F)CC1 (centres unmarked) [Compound 22]	only a minor effect				1.1 ± 0.1	190 ± 90		comparable to those in MOLM-13	comparable to those in MOLM-13		
CC1(C)CCN(Cc2cc(F)c(N3CC(=O)NC4(CCN(c5cc(NCc6cccc(CNC(=O)CCCCCCCCCCn7cc(CNc8cccc9c8C(=O)N(C8CCC(=O)NC8=O)C9=O)nn7)c6)ncn5)CC4)C3)cc2F)CC1 (centres unmarked) [Compound 20]	only a minor effect	elevated levels of METTL3–14	did not observe any degradation	≥ 50	0.6 ± 0.0	860 ± 240	submicromolar	comparable to those in MOLM-13	comparable to those in MOLM-13		
CC1(C)CCN(Cc2cc(F)c(N3CC(=O)NC4(CCN(c5cc(NCCN6CCN(C(=O)CCCCCNc7cccc8c7C(=O)N(C7CCC(=O)NC7=O)C8=O)CC6)ncn5)CC4)C3)cc2F)CC1 (centres unmarked) [Compound 30]	only a minor effect				1.0 ± 0.1	70 ± 30	submicromolar	comparable to those in MOLM-13	comparable to those in MOLM-13	0.1	up to 60%
